{
  "source": "patent US10022342B2",
  "about": "“Methods and compositions for treating multiple myeloma” (Ohio State Innovation Foundation, priority 2015, dated 2018)",
  "key": {"histone 3 and 4": {"system": "histone 3 and 4", "assay": "Immunoblot of acetyl histone H3 and H4 in MM.1S cells", "type": "cell-based, human", "conditions": "0.1 μM, 24-hr", "description": "(§1) Growth inhibitory and pro-apoptotic properties of AR-42 as a single agent treatment agent have been reported previously in numerous malignancies, including MM. Because of the potent immunomodulatory effects observed with classical pan-HDACi's, immunology-related gene networks altered upon AR-42 treatment in MM cells were investigated using nCounter technology to analyze the effects of AR-42 on the expression of 511 human genes in MM.1S cells following 24-hr treatment with 0.1 μM AR-42.\n(§2) Cells were harvested by centrifugation, washed with PBS and lysed using buffer composed of 50 mM Tris (pH 7.5), 150 mM NaCl, 10% glycerol, 1.0% NP-40, 0.1% SDS, supplemented with protease and phosphatase inhibitors. Protein concentrations were estimated by Bradford assay and equivalent quantities of the lysates were resolved on 4-20% Tris-HCl SDS-PAGE TGX gels (Bio-Rad). Proteins were transferred to nitrocellulose membranes and stained for acetyl-histone H3 (Milipore), acetyl-histone H4 (Milipore), IGF2BP1 (Cell Signaling Technology), IGF2BP3 (IMP-3, Santa Cruz Biotechnology), CD44 (Santa Cruz Biotechnology), CD48 (Abcam), Drosha (Cell Signaling Technology), or glyceraldehyde 3-phosphate dehydrogenase (GAPDH, Cell Signaling Technology), followed by anti-mouse, or anti-rabbit IgG-HRP (GE Healthcare). Signals were developed using Pierce ECL Western Blotting Substrate (Thermo Fisher Scientific)."}, "[1]": {"system": "MM cell lines (MM.1S, U266, RPMI-8226, MM.1R)", "assay": "Annexin V-PI apoptosis, single-agent AR-42 in MM cell lines", "type": "cell-based, human", "conditions": "0.1 μM, 24-hr; all MM cell lines tested", "description": "as §1\n(§3) CD44 surface expression was analyzed by staining cells with CD44-FITC antibody (BD Biosciences) for 30 min. in the dark, at room temperature. Apoptosis was measured by Annexin V-FITC and Propidium Iodide (PI) (Clontech) staining for 15 min. in the dark, at room temperature and data immediately acquired on a Beckman Coulter FC500 (Beckman Coulter) machine. Analysis was conducted using the FlowJo Software vX.0.7 (Tree Star Inc.). For the multiparametric analysis, the bone marrow samples were stained with CD38-PE (347687; BD Bioscience), CD138-APC (347193; BD Bioscience), CD45-ECD (A07784; Beckman Coulter), CD44-FITC (BD Bioscience) and AnnexinV-FITC (Clontech) for 30 minutes, washed with PBS and immediately analyzed with Gallios cytometer (Beckman Coulter)."}, "CD44 [2]": {"system": "CD44", "assay": "nCounter GX Human Immunology gene expression in MM.1S cells", "type": "cell-based", "conditions": "0.1 μM, 24-hr, p<0.001", "description": "as §1\nTotal RNA was prepared using TRIzol (Invitrogen). The RNA was analyzed by nCounter GX Human Immunology Kit, or nCounter Human microRNA Kit, as recommended by the manufacturer (NanoString Technologies, Inc.). A total of 511 immunology related genes and 800 microRNAs were profiled.\nSamples analyzed by NanoString assay were normalized using the variance stabilization. The mean linkage hierarchical clustering algorithm was conducted to identify subgroups of significant miRNAs. […] The obtained data were deposited in the GEO database (accession number)."}, "CD44 mRNA": {"system": "CD44 mRNA", "assay": "CD44 mRNA by qRT-PCR in MM cells", "type": "cell-based, human", "description": "(§4) Reduction of CD44 mRNA and protein persisted for 48 hours after treatment (FIGS. 2C-2D and data not shown).\nQuantitative real time-PCR (qRT-PCR) was performed with the TaqMan method (Applied Biosystems), according to the manufacturer's instructions, and analyzed with the 7900HT Sequence Detection System (Applied Biosystems). The appropriate TaqMan probes for mRNA, miRNA, and pri-miRNA quantification were purchased from Applied Biosystems, and all reactions were performed in triplicate. The following probes were used: hsa-miR-9-5p (000583), hsa-mir-9-1 (Hs03303201_pri), hsa-miR-9-2 (Hs03303202_pri), hsa-mir-9-3 (Hs03293595_pri), CD44 (Hs01075861_ml), IGF2BP3 (Hs00559907_g1). Simultaneous quantification of ornithine decarboxylase antizyme 1 (OAZ1), or GAPDH mRNAs were used as a reference for mRNA data normalization, while small endogenous nucleolar RNA U44/U48, or U6 were used for miRNA normalization. The relative expression levels were calculated by the comparative cycle threshold (Ct) method (User Bulletin #2; Applied Biosystems). Expression analyses of pre-miRNA was performed with SYBR green PCR master mix (Applied Biosystems) and normalized for U6 RNA. All primers used for amplification steps are listed in the Supplementary materials and methods."}, "CD44 [3]": {"system": "CD44", "assay": "CD44 protein by immunoblot in MM cells", "type": "cell-based, human", "conditions": "24-hr treatment, dose-dependent, vs DMSO control", "description": "as §4, §2"}, "CD44 [4]": {"system": "CD44", "assay": "CD44 cell surface expression by flow cytometry in MM cell lines", "type": "cell-based, human", "description": "(§5) The down-regulation of CD44 cell surface expression was also observed by flow cytometry in all MM cell lines tested expressing detectable CD44 levels (FIG. 1D, FIGS. 2E-2F and data not shown).\nas §3"}, "CD48": {"system": "CD48", "assay": "CD48 protein and mRNA expression in MM.1S cells", "type": "cell-based, human", "conditions": "48 hours", "description": "as §5, §2"}, "MM.1S cell line": {"system": "MM.1S cell line", "assay": "Tumor size in MM.1S subcutaneous xenograft mice", "type": "in vivo", "conditions": "25 mg/kg, 2 injections, at sacrifice", "description": "To investigate if AR-42 treatment could affect CD44 expression in vivo, a xenograft MM mouse model was created by injecting 1×10^7 viable cells of MM.1S cell line subcutaneously into the right flank of 12 NOD-SCID mice. […] One group of mice (n=4) received intra-peritoneal injections of 25 mg/kg AR-42, while the second group (n=4) was injected with vehicle control (8% DMSO in PBS; Ctrl). Injections were administered once a day (on Monday and Wednesday). Because the anti-tumor activity of AR-42 has been previously reported in preclinical mouse studies, mice were sacrificed 2 days after the second injection in order to avoid tumor size reduction. […] Tumors were excised and used for CD44 immunohistochemical (IHC) studies, while the serum was collected for ELISA assays. […] Thus, AR-42 down-regulates CD44 directly in vivo.\nAnimal experiments were performed according to OSU institutional guidelines. To generate MM xenograft model, 1×10^7 viable MM.1S cells were injected subcutaneously into the right flank of 12 […]. The tumor size was measured once a week using a caliper, and the volume was calculated in cubed millimeters (mm3), using the formula L×W2/2. […] Mice were treated with […] injection of AR-42 (25 mg/kg) or DMSO (8% in PBS) once a day on Monday and Wednesday."}, "[5]": {"system": "U266, RPMI, and MM1S cells", "assay": "Apoptosis (annexin) and necrosis (propidium iodide) by HDAC inhibitors, FIG. 15", "type": "cell-based, human", "conditions": "24 and 48 hours, 0.25, 0.5, and 1 μM", "description": "Apoptosis was measured by annexin staining while cell necrosis was measured by propidium iodide staining.\nas §3"}},
  "data": [
    {"compound": "CC(C)[C@H](C(=O)Nc1ccc(C(=O)NO)cc1)c1ccccc1", "note": "[AR-42, (S)-N-hydroxy-4-(3-methyl-2-phenylbutanamido)benzamide]", "values": [
      {"measurement": "hyperacetylation of histone 3 and 4", "setting": "histone 3 and 4", "result": "detectable hyperacetylation"},
      {"measurement": "apoptosis by Annexin V-PI staining", "setting": "[1]", "result": "without significant increase of apoptosis"},
      {"measurement": "CD44 gene expression (nCounter)", "setting": "CD44 [2]", "result": "most significantly downregulated"},
      {"measurement": "persistence of reduction of CD44 mRNA and protein after treatment", "setting": "CD44 mRNA", "result": 48, "unit": "h"},
      {"measurement": "CD44 mRNA", "setting": "CD44 mRNA; 24-hr treatment, dose-dependent, vs DMSO control", "result": "consistently downregulated"},
      {"measurement": "CD44 protein levels", "setting": "CD44 [3]", "result": "consistently downregulated"},
      {"measurement": "CD44 cell surface expression", "setting": "CD44 [4]; all MM cell lines tested expressing detectable CD44", "result": "down-regulation"},
      {"measurement": "CD44 downregulation compared to other HDACi's", "setting": "CD44 [4]; at comparable IC50 concentrations, vs SAHA, LBH589, JQ12", "result": "greater CD44 downregulation"},
      {"measurement": "CD48 protein and mRNA levels", "setting": "CD48", "result": "consistent up-regulation"},
      {"measurement": "tumor size vs vehicle group", "setting": "MM.1S cell line", "result": "still comparable"},
      {"measurement": "apoptosis (annexin staining)", "setting": "[5]", "result": "highest level of apoptosis"},
      {"measurement": "cell necrosis (propidium iodide staining)", "setting": "[5]", "result": "lowest levels of cell necrosis"}
    ]}
  ]
}
